Results as given in ChEMBL document CHEMBL3232913, “Structural basis for the identification of the N-terminal domain of coronavirus nucleocapsid protein as an antiviral target” (2014).
Calls of active or inactive are those of the source. The calls are words filed in the database; no cut-off is given here.

Tests used:
[1] = molecular target: T1, Nucleoprotein (Human coronavirus OC43) (UniProt P33469); assay: Inhibition of human coronavirus OC43 nucleocapsid protein expressed in Escherichia coli BL21(DE3) assessed as reduction of RNA-binding capacity by surface plasmon resonance analysis relative to control; details: concentration not given here
T1 sequence (whole entry): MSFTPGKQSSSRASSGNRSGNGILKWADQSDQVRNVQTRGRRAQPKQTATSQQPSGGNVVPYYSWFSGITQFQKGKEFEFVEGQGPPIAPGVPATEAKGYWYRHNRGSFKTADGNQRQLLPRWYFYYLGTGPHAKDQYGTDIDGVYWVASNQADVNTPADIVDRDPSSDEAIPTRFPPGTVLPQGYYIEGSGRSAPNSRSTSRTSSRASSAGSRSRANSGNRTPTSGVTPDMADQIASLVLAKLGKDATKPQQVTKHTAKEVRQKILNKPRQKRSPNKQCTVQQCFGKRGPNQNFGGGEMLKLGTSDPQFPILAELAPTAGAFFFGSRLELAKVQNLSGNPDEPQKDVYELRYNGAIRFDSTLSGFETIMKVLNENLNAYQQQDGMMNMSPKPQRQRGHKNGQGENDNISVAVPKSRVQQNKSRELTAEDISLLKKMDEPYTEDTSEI

[2] = test system: Human coronavirus OC43; assay: Inhibition of Human coronavirus OC43 replication infected in human 293T cells transfected with wild-type HCoV-OC43 N protein assessed as M mRNA level at 10 uM by RT-PCR analysis (reference value: 2.41 no unit); format: functional
[3] = test system: Human coronavirus OC43; assay: Inhibition of Human coronavirus OC43 replication infected in human 293T cells assessed as M mRNA level at 10 uM by RT-PCR analysis (reference value: 0.32 no unit); format: functional
[4] = molecular target: T1, Nucleoprotein (Human coronavirus OC43); details: 10 uM
Description: Inhibition of human coronavirus OC43 nucleocapsid protein expressed in Escherichia coli BL21(DE3) assessed as reduction of RNA-binding capacity by measuring resonance unit at 10 uM by surface plasmon resonance analysis relative to control

SMILES | inhibition [1] | fold change (FC) [2] | fold change (FC) [3] | inhibition [4]
CN(C)CC(=O)Nc1ccc2[nH]c(=O)c3ccccc3c2c1.Cl [PJ34] | > 10% | 0.65 | 0.11 | Active
O=C1C(Cl)=C(NCCN2CCOCC2)C(=O)c2ncccc21 | > 10% | 2.46 | 0.22 | 
